US20230391760A1, “HETEROCYCLIC GLP-1 AGONISTS” (Gasherbrum Bio, Inc., priority 2020, published 2023)

Biological target: GLP-1 Receptor (Homo sapiens, UniProt P43220)
Experiment: GLP-1R agonist cAMP stimulation assay (HEK293/GLP1R/CRE-LUC cells, cAMP dynamic 2 Kit)
Type: cell-based
Details: HEK293/CRE-Luc cell line stably expressing the GLP-1 Receptor, 30 min at 37° C.
In short: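 HEK293 cells stably expressing human GLP-1R with CRE-luciferase, 1000 cells/well in DPBS with 0.5 mM IBMX and 0.1% BSA, treated with compound in 1/2-log serial dilution for 30 min at 37 °C. cAMP then detected by HTRF (cAMP-d2 plus anti-cAMP cryptate), 1 h at room temperature in the dark.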

Chain of GLP-1 Receptor (P43220 24-463, species assumed): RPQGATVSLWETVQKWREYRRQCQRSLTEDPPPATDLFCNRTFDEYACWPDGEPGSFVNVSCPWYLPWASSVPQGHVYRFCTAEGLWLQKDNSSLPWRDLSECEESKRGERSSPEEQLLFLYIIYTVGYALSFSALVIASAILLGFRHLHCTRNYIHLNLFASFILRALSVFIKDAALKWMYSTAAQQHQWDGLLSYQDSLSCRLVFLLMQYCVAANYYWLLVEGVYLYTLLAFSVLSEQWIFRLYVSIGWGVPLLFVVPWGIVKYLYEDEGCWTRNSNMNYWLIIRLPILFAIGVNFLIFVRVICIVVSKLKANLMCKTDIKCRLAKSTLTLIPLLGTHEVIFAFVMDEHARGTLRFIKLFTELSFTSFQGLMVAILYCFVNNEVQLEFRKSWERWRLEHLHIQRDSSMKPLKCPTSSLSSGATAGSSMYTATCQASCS

Row | EC50 | Compound
1 | 0.23 nM | Cc1nc(-c2noc(=O)[nH]2)cc2nc(CN3CCC(c4cccc5c4O[C@@](C)(c4ccc(Cl)cc4F)O5)CC3)n(C[C@@H]3CCO3)c12 [Compound 434a, 3-[2-({4-[(2S)-2-(4-chloro-2-fluorophenyl)-2-methyl-2H-1,3-benzodioxol-4-yl]piperidin-1-yl}methyl)-4-methyl-3-{[(2S)-oxetan-2-yl]methyl}-3H-imidazo[4,5-c]pyridin-6-yl]-4,5-dihydro-1,2,4-oxadiazol-5-one]
2 | 0.018 nM | Fc1cc(Cl)ccc1COc1cccc(C2CCN(Cc3nc4cc(-c5nnc(C(F)(F)F)[nH]5)ncc4n3C[C@@H]3CCO3)CC2)n1 [Compound 435a, 2-[(4-chloro-2-fluorophenyl)methoxy]-6-{1-[(3-{[(2S)-oxetan-2-yl]methyl}-6-[5-(trifluoromethyl)-4H-1,2,4-triazol-3-yl]-3H-imidazo[4,5-c]pyridin-2-yl)methyl]piperidin-4-yl}pyridine]
3 | 0.91 nM | Fc1cc(Cl)ccc1COc1cccc(C2CCN(Cc3nc4cc(-c5nnc[nH]5)ncc4n3C[C@@H]3CCO3)CC2)n1 [Compound 436a, 2-[(4-chloro-2-fluorophenyl)methoxy]-6-{1-[(3-{[(2S)-oxetan-2-yl]methyl}-6-(4H-1,2,4-triazol-3-yl)-3H-imidazo[4,5-c]pyridin-2-yl)methyl]piperidin-4-yl}pyridine]
4 | 2.7 nM | CO[C@@H](C)Cn1c(CN2CCC(c3cccc4c3OC(C)(c3ccc(Cl)cn3)O4)CC2)nc2cc(-c3noc(=O)[nH]3)ncc21 (stereo partly drawn) [Compound 437a, 3-[2-({4-[2-(5-chloropyridin-2-yl)-2-methyl-2H-1,3-benzodioxol-4-yl]piperidin-1-yl}methyl)-3-[(2S)-2-methoxypropyl]-3H-imidazo[4,5-c]pyridin-6-yl]-4,5-dihydro-1,2,4-oxadiazol-5-one]
5 | 0.026 nM | O=c1[nH]c(-c2cc3nc(CN4CCC(c5ccc(F)c(OCc6ccc(Cl)cc6F)n5)CC4)n(C[C@@H]4CCO4)c3cn2)no1 [Compound 438a, 3-{2-[(4-{6-[(4-chloro-2-fluorophenyl)methoxy]-5-fluoropyridin-2-yl}piperidin-1-yl)methyl]-3-{[(2S)-oxetan-2-yl]methyl}-3H-imidazo[4,5-c]pyridin-6-yl}-4,5-dihydro-1,2,4-oxadiazol-5-one]
6 | 2.3 nM | O=c1[nH]c(-c2cc3nc(CN4CCN(c5ccc(F)c(OCc6ccc(Cl)cc6F)c5)CC4)n(C[C@@H]4CCO4)c3cn2)no1 [Compound 439a, 3-{2-[(4-{3-[(4-chloro-2-fluorophenyl)methoxy]-4-fluorophenyl}piperazin-1-yl)methyl]-3-{[(2S)-oxetan-2-yl]methyl}-3H-imidazo[4,5-c]pyridin-6-yl}-4,5-dihydro-1,2,4-oxadiazol-5-one]
7 | 0.04 nM | C[C@]1(c2ccc(Cl)cc2F)Oc2cccc(C3CCN(Cc4nc5cc(-c6nnc[nH]6)ncc5n4C[C@@H]4CCO4)CC3)c2O1 [Compound 440a, 4-[(2S)-2-(4-chloro-2-fluorophenyl)-2-methyl-2H-1,3-benzodioxol-4-yl]-1-[(3-{[(2S)-oxetan-2-yl]methyl}-6-(4H-1,2,4-triazol-3-yl)-3H-imidazo[4,5-c]pyridin-2-yl)methyl]piperidine]
8 | 0.025 nM | CC1(c2ccc(Cl)cc2F)Oc2cc(F)cc(C3CCN(Cc4nc5cc(-c6nnc(C(F)(F)F)[nH]6)ncc5n4C[C@@H]4CCO4)CC3)c2O1 (stereo partly drawn) [Compound 441a, 4-[2-(4-chloro-2-fluorophenyl)-6-fluoro-2-methyl-2H-1,3-benzodioxol-4-yl]-1-[(3-{[(2S)-oxetan-2-yl]methyl}-6-[5-(trifluoromethyl)-4H-1,2,4-triazol-3-yl]-3H-imidazo[4,5-c]pyridin-2-yl)methyl]piperidine]
9 | 0.033 nM | CO[C@H](C)Cn1c(CN2CCC(c3cccc4c3O[C@@](C)(c3ccc(C#N)cc3F)O4)CC2)nc2cc(-c3nnc(C(F)(F)F)[nH]3)ncc21 [Compound 442a, 3-fluoro-4-[(2S)-4-[1-({3-[(2R)-2-methoxypropyl]-6-[5-(trifluoromethyl)-4H-1,2,4-triazol-3-yl]-3H-imidazo[4,5-c]pyridin-2-yl}methyl)piperidin-4-yl]-2-methyl-2H-1,3-benzodioxol-2-yl]benzonitrile]
